Patent publication US20220184091A1, “Methods of Treating Cancer with Chk1 Inhibitors” (Sierra Oncology, Inc., priority 2019, published 2022)
Read-outs that look alike come from different tables or passages of the source.

How the values were obtained:
[1] = Excretion of SRA737 in rats; format: in vivo; details: rat; over 24 hours
Protocol: The excretion of SRA737 has been studied in mice and rats administered SRA737 at either 5 mg/kg IV or 10 mg/kg orally. Urine and feces were collected for a 24-hour period after dosing. In mice, renal excretion of intact SRA737 was consistently low (less than 10% of dose) after both oral and IV administration. Following IV administration of SRA737, less than 8% of the dose was recovered as intact drug in the feces while after oral administration this figure was less than 3%. Excretion of intact SRA737 was lower in the rat than in the mouse with <1% of dose excreted renally over 24 hours and less than 1.5% of dose excreted into the feces over 24 hours.

IFNβ, CXCL10 and CCL5 = assay: qPCR of IFNβ, CXCL10 and CCL5 in resected RPP tumors; format: in vivo, mouse
Protocol: Data presented as mean±SD and p values by t-test * p<0.05, **p<0.01, ***p<0.001.
(§1) Real-time PCR was done using SYBR Select Master Mix (Life Technologies, cat #4472908) according to the manufacturer's protocol. Primers were purchased from Sigma Aldrich, Inc. Triplicate PCR reactions were run on ABI (7500 Fast Real Time PCR System). The comparative Ct method using the average 2ΔΔCT value for each set of triplicates was used, and the average of the biological replicates was calculated. Negative controls were included for every primer set, and GAPDH was used as the […].

[2] = SRA737 plasma and tumor concentrations in HT29 xenograft model; format: in vivo; details: mouse, oral
Protocol: For each dose, columns from left to right are concentrations in plasma at 6 hours, plasma at 24 hours, tumor at 6 hours, and tumor at 24 hours, respectively.
The effect of SRA737 on Gemcitabine induced Chk1 S296 autophosphorylation was assessed as described in Walton et al. (Oncotarget. 2016 Jan. 19; 7(3): 2329-2342), herein incorporated by reference for all it teaches. Briefly, mice bearing HT29 tumor xenografts were administered (i) vehicle control or (ii) gemcitabine (100 mg/kg in saline, IV) or ([…]) and gemcitabine (100 mg/kg) with SRA737 administered 24 hours following gemcitabine administration (n=3 per time point per treatment). […] Exposure in the tumor was greater than 10-fold higher than in plasma. The circulating plasma concentration at this 24-hour timepoint corresponded to a free drug concentration of approximately 6 nM (2 ng/mL) based on plasma protein binding in mice of 94%.

CXCL10 and CCL5 = assay: qPCR of CXCL10 and CCL5 in MC38 tumors; format: in vivo, mouse
Text: FIGS. 23A-D show the qPCR measurement of CXCL10 and CCL5 mRNA expression in MBT-2 (FIG. 23A and FIG. 23B) and MC38 (FIG. 23C and FIG. 23D) tumors resected after 7 or 14 days of treatment with SRA737 5/7 days. Data presented as mean±SD and p values by t-test * p<0.05, **p<0.01, ***p<0.001.
as §1
The flank of immunocompetent mice was then treated with SRA737 monotherapy for 5-days-on/2-days-off for either one or two cycles and the expression of CCL5 and CXCL10 in extracted tumors were analyzed. […] The previously used dosing regimen of 5-days-on/2-days-off was modified to a schedule of 7-days-on/7-days-off for SRA737 treatment with or without co-treatment with anti-PD1 (Days 3, 7 and 11) based on the results of induction of chemokines secretion after 7 days.

Chk1 [3] = target: T1, Chk1 (Homo sapiens, UniProt O14757); assay: In vitro Chk1 autophosphorylation and potentiation of genotoxic agents; format: cell-based
T1 construct: endogenous in cells
T1 sequence (O14757 whole entry, species assumed): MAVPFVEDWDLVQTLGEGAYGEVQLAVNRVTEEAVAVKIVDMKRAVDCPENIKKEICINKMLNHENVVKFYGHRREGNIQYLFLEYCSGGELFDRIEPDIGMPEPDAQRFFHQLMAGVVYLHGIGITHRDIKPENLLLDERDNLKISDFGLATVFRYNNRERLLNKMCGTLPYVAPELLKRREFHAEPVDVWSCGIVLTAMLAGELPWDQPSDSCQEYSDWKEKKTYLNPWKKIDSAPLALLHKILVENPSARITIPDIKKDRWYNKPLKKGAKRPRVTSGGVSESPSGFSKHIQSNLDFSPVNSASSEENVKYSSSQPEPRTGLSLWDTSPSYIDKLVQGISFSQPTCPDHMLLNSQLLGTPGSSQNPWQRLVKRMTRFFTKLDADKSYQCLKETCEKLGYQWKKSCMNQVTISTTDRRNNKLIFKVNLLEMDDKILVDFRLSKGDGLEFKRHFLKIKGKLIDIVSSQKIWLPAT

SNU-C1 = assay: Cell viability, colon cancer line SNU-C1; format: cell-based; details: Homo sapiens
Chk1 [4] = target: T1, Chk1; details: previously found; Walton et al.; cited from earlier work
RPP tumor = assay: Flank RPP (SCLC) tumor growth in B6129F1 immunocompetent mice; format: in vivo, mouse; details: anti-PD-L1 300 μg 1-day-on/6-days-off
Protocol: (§2) Tumors were evaluated twice weekly for the duration of the study. Tumor volumes were measured on all mice three times per week and calculated (width^2×length×0.4) using manual calipers. Once the average tumor size was in the range of 120-150 mm^3, mice were randomized into dosing groups using stratified sampling by assigning three animals per group for short-term reverse-phase protein array analysis and long-term treatment. Dosing schedules and duration varied depending on the study. Mice were weighed three times per week for the duration of the study, and a decrease in body weight >15% was considered indicative of a toxic dose. The Student t-test was used to determine statistical significance between compound- and vehicle-treated groups.
[…] 15A.

MBT-2 = MBT-2 bladder flank tumor growth in immunocompetent mice; format: in vivo, mouse; details: SRA737 100 mg/kg 5-days-on/2-days-off p.o., anti-PD1 BIW 10 mg/kg i.p.
Protocol: as §2
Tumors cells were implanted into the flank of immunocompetent mice. Once the volumes of the tumor reached 150-200 mm^3, the mice were randomized and treated with either monotherapy of SRA737 at 100 mg/kg for 5-days-on/2-days-off p.o., anti-PD1 BIW at 10 mg/kg i.p. or the combination thereof.

dose excreted into the feces [1]: less than 1.5 % of dose | dose excreted renally [1]: < 1 % of dose | concentration at 6 h ([2]; plasma, HT29 xenograft, Dose 12.5 mg/kg, read-out: Plasma (6 h)): 1.01 µM | concentration at 24 h ([2]; plasma, HT29 xenograft, Dose 12.5 mg/kg, read-out: Plasma (24 h)): 0.0777 µM | concentration at 6 h ([2]; plasma, HT29 xenograft, Dose 25 mg/kg, read-out: Plasma (6 h)): 2.52 µM | concentration at 24 h ([2]; plasma, HT29 xenograft, Dose 25 mg/kg, read-out: Plasma (24 h)): 0.893 µM | concentration at 6 h ([2]; plasma, HT29 xenograft, Dose 50 mg/kg, read-out: Plasma (6 h)): 3.96 µM | concentration at 24 h ([2]; plasma, HT29 xenograft, Dose 50 mg/kg, read-out: Plasma (24 h)): 0.512 µM | concentration at 6 h ([2]; plasma, HT29 xenograft, Dose 100 mg/kg, read-out: Plasma (6 h)): 5.84 µM | concentration at 24 h ([2]; plasma, HT29 xenograft, Dose 100 mg/kg, read-out: Plasma (24 h)): 1.67 µM | concentration at 24 h ([2]; plasma, mice, PK/PD benchmark): > 0.1 µM | concentration at 6 h ([2]; tumor, HT29 xenograft, Dose 3.125 mg/kg, read-out: Tumor (6 h)): 3.18 µM | concentration at 24 h ([2]; tumor, HT29 xenograft, Dose 3.125 mg/kg, read-out: Tumor (24 h)): 0.646 µM | concentration at 6 h ([2]; tumor, HT29 xenograft, Dose 6.25 mg/kg, read-out: Tumor (6 h)): 4.01 µM | concentration at 24 h ([2]; tumor, HT29 xenograft, Dose 6.25 mg/kg, read-out: Tumor (24 h)): 0.966 µM | concentration at 6 h ([2]; tumor, HT29 xenograft, Dose 12.5 mg/kg, read-out: Tumor (6 h)): 19 µM | concentration at 24 h ([2]; tumor, HT29 xenograft, Dose 12.5 mg/kg, read-out: Tumor (24 h)): 3.97 µM | concentration at 6 h ([2]; tumor, HT29 xenograft, Dose 25 mg/kg, read-out: Tumor (6 h)): 37.5 µM | concentration at 24 h ([2]; tumor, HT29 xenograft, Dose 25 mg/kg, read-out: Tumor (24 h)): 16.3 µM | concentration at 6 h ([2]; tumor, HT29 xenograft, Dose 50 mg/kg, read-out: Tumor (6 h)): 76.3 µM | concentration at 24 h ([2]; tumor, HT29 xenograft, Dose 50 mg/kg, read-out: Tumor (24 h)): 27.5 µM | concentration at 6 h ([2]; tumor, HT29 xenograft, Dose 100 mg/kg, read-out: Tumor (6 h)): 132 µM | concentration at 24 h ([2]; tumor, HT29 xenograft, Dose 100 mg/kg, read-out: Tumor (24 h)): 102 µM | IC50 (SNU-C1): 1300 nM
SMILES: N#Cc1cnc(Nc2cc(NCC3CNCCO3)c(C(F)(F)F)cn2)cn1 (stereo not drawn) [SRA737, 5-[[4-[[morpholin-2-yl]methylamino]-5-(trifluoromethyl)-2-pyridyl]amino]pyrazine-2-carbonitrile]
gene expression levels of IFNβ, CXCL10 and CCL5 vs vehicle (IFNβ, CXCL10 and CCL5; RPP tumors at Day 21, 100 mg/kg 5-days-on/2-days-off): higher gene expression levels | expression of IFNβ, CCL5 and CXCL10 (IFNβ, CXCL10 and CCL5; RPP tumors resected at Day 21, SRA737 2-days-on/5-days-off): Neither LDG nor SRA737 monotherapy (2-days-on/5-days-off) showed any significant effect | expression of CCL5 (CXCL10 and CCL5; after 7 days): modestly but not statistically significantly reduced | CXCL10 levels (CXCL10 and CCL5; after 14 days, p<0.05): significantly increased | potentiation of the cytotoxicity of genotoxic chemotherapeutic agents and targeted agents (Chk1 [3]): dose-dependent potentiation | off-target activity against other kinases (Chk1 [4]): limited off-target activity against other kinases | anti-tumor response (tumor growth) (RPP tumor; SRA737 100 mg/kg 3-days-on/4-days-off or 5-days-on/2-days-off): significant reduction in tumor growth | anti-tumor effect (tumor volume) (RPP tumor; LDG 40 mg/kg 1-day-on/6-days-off, SRA737 100 mg/kg 2-day-on/5-days-off): no significant anti-tumor effect | TGI (MBT-2): 53%
